For one data set, the system named is WT mice (C57/BL6). The data set can be described thus: BLM-induced pulmonary fibrosis in mice. The data set is classed as in vivo, mouse. The source says:
8-12 week old littermate mice were divided into an experimental group that received intratracheal Bleomycin (BLM, 0.08 U) and a control group that received Normal Saline instead. Mice were sacrificed at 7 and 14 days post BLM instillation for pathology evaluation.
Age and sex-matched 6-8 week old WT (C57/Bl6) mice were divided in four study groups according to the treatment regime.
Group A (n=5) received i.p injections of Veh (water) twice per week for two weeks starting at day −1 and instilled with Saline intratracheally at day 0.
Group B (n=3) received i.p injections of BRP-LPA (10 mg/Kg) twice per week for two weeks starting at day −1 and instilled with Saline intratracheally at day 0.
Group C (n=9) received i.p injections of Veh twice per week for two weeks starting at day −1 and instilled with BLM (0.08 U) intratracheally at day 0.
Group D (n=8) received i.p injections of BRP-LPA (10 mg/Kg) twice per week for two weeks starting at day −1 and instilled with BLM (0.08 U) intratracheally at day 0. A schematic representation of the time course of the protocol is depicted below.
All mice were sacrificed at day 14 after BLM instillation for disease evaluation. […] Lungs were lavaged 3 times with 1 ml aliquots of saline (BAL) followed by perfusion through the right ventricle of the heart with 10 ml of PBS. BAL fluid was centrifuged and cell pellets were used for total cell counts with Trypan Blue while the supernatant was snap frozen.
Right lung was instilled with 1 ml of buffered formalin, dissected and fixed O/N in formalin. Left lung was snap frozen and used for soluble collagen measurements using the Sircol assay.
Schematic representation of BRP-LPA administration protocol. BRP-LPA (or water) was administered intraperioneally in mice starting one day before BLM (or Sal) instillation and every three other days until the end of the study (14 days). Pulmonary fibrosis was induced with a single i.t. instillation of BLM at day 0.
Soluble collagen measurements were performed using the Sircol reagent according to manufacture's recommendations.

The target in data set [1] is T1, ATX (Mus musculus, UniProt Q9R1E6).
T1 construct: from tissue; host or cells: BAL fluid of WT mice exposed to aerosolised LPS
As to the kind of experiment: ATX activity assay (FS-3 cleavage) in BAL fluids, LPS model. The format is in vivo. As to conditions: intratracheal prior to LPS; 24 hr. The protocol: Autotaxin activity in BALF of mice was determined using the cleavage of the ATX-specific fluorogenic substrate FS-3 (Echelon Biosciences, UT, USA). Assays were conducted in a final volume of 100 μl comprising 20 μl 5× assay buffer (700 mM NaCl, 25 mM KCl, 5 mM MgCl2 and 250 mM Tris, pH 8.0), 20 μl of FS-3 (final concentration 2.5 μM) and 60 μl of BALF (diluted 1:2 in 1×PBS). Reactions were incubated at 37° C. in a Tecan Infinite 200 microplate reader (Tecan Trading AG, Switzerland) set to make fluorescence measurements every 5 min for 1 hour. Autotaxin activity was quantitated by measuring the rate of increase in fluorescence at 528 nm with excitation at 485 nm.

The test system of data set [2] is ATX. The data set can be described thus: ATX ELISA in plasma and BAL fluids of control and BLM treated mice. The format is in vivo, mouse. The settings on record: saline treated, naive mice; same trend in BLM-treated mice. The protocol: To detect ATX in biological fluids, a direct ELISA assay was developed using the commercially available anti-phospholipase D polyclonal antibody (Cat. No. 10005375, Cayman chemical, USA). The bottom of a NUNC-IMMUNO 96 MicroWell Elisa plate was coated overnight with 100 μl of 1:200 diluted serum in 0.05 M carbonate/bicarbonate coating buffer, pH 9.5 (Cat. No. S7795/S7277, Sigma, Saint Louis, […]., USA), washed three times with 0.05% Tween-20 (Cat. No. P1379, Sigma, USA) in TBS and blocked with 0.1% Bovine Serum Albumin (Cat. No. A7888, Sigma, USA) in 0.05% TBST for 1 h at RT. For each ELISA assay, 100 μl of two-fold serial dilutions of recombinant ATX protein ranging from 0.1 to 1.6 μg/ml were plated as standard curve and treated as all samples.
The plate was then incubated with 0.5 μg/ml detection antibody for 1 h and washed three times with 0.05% TBST. Autotaxin antigen was then detected with an anti-rabbit HRP-labeled secondary antibody (Cat. No. 4010-05, SouthernBiotech, USA) that was developed with TMB substrate (Cat. No. […], Sigma, USA). Readings were obtained at 450 nm. All samples and standards were assayed in triplicates.

The subject of a further data set is EAE mice. The data set can be described thus: Experimental autoimmune encephalomyelitis (EAE), animal model of MS. The format is in vivo, mouse. As to conditions: injected intraperitoneally twice a week at 10 mg/Kg. Here is the method: Active EAE in wild-type C57Bl/6 mice was induced as described. Briefly, the mice were challenged in the […] with an emulsion containing 50 μg of MOG p35-55 peptide ( ) supplemented with 8 mg/ml heat-inactivated Mycobacterium tuberculosis (H37Ra strain; Difco Laboratories) in CFA (Difco Laboratories) on day 0 in the tail base. Booster immunization with an identical emulsion was given on both sides. Bordetella pertussis toxin (PT) (List Biologicals) were administered i.p. (200 ng/mouse) 48 h after the immunization. For induction of EAE in MOGi-cre/Atx^n/n mice, the doses for MOG35-55 peptide and PT were the same as for wild type mice Atx^n/n. From mice injected at 8 to 12 weeks of age, representative animals were fixed for immunohistochemistry (4% paraformaldehyde in phosphate-buffered saline) and then 7-μm thick frozen sections were used for immunohistochemistry, or fixed in 10% buffered formalin overnight at 4° C. for histopathology. […]
Mice were observed daily for clinical signs of EAE. The severity of EAE was evaluated and scored as follows: 0, no clinical disease; 1, tail paralysis; 2, hindlimb weakness and abnormal gait (incomplete paralysis of one or two hindlimbs); 3, paraplegia (complete paralysis of one or two hindlimbs); 4, quadriplegia; 5, moribund or dead animals.

Data set [3] has as its target T1, ATX. As to the kind of experiment: ATX activity assay (FS-3 cleavage) in plasma of saline- and BLM-treated mice. The format is in vivo. As to conditions: both in saline- and BLM-treated mice. Here is the method:
[…] […] Reactions were incubated at 37° C. in a Tecan Infinite 200 microplate reader (Tecan Trading AG, Switzerland) set to make fluorescence measurements every 5 min for 1 hour. Autotaxin activity was quantitated by measuring the rate of increase in fluorescence at 528 nm with excitation at 485 nm.

The next data set concerns WT mice. As to the kind of experiment: LPS-induced lung inflammation (aerosolised LPS) in mice. The data set is classed as in vivo, mouse. The protocol:
6-8 week old littermate mice were divided into an experimental group that received aerosolised LPS (from Pseudomonas aeruginosa, 10 mg dissolved in 3 ml Normal Saline) and a control group that received Normal Saline instead. […] The LPS solution was administered by a custom-made nebuliser flowing at 4 l/min oxygen for 20-25 min into an airtight chamber containing 5-7 mice. All analyses were performed 24 h later.
Upon euthanasia, blood was drawn from the vena cava and was added to 50 mM EDTA for plasma preparations. Lungs were lavaged with an aliquot of 1 ml normal saline followed by 2 ml of saline (Bronchoalveolar Lavage Fluid. BALF). BALF aliquots were centrifuged; the cell pellets were combined and used for total cell counts with Trypan Blue while supernatants were snap-frozen. Lungs were then perfused with 10 ml of PBS through the spontaneous beating right ventricle and the left lung was snap-frozen for future analysis while the right lung was fixed in 10% neutral buffered formalin. Tissues were embedded in paraffin, and 5-μm-thick sections were cut at the median transverse level of the lungs. Sections were mounted on glass slides and stained with H&E.
Total protein concentration in BALFs was measured using the Bradford protein assay (Biorad, Hercules, Calif.) according to manufacturer's recommendations. OD readings of samples were converted to μg/ml using values obtained from a standard curve generated with serial dilutions of bovine serum albumin (50-500 μg/ml).

The subject of a further data set is CIA in DBA/1 mice. The data set can be described thus: Experimental arthritis (collagen induced arthritis, CIA) in mice. The settings on record: injected intraperitoneally twice a week. The data set is classed as in vivo, mouse.

`CCCCCCCCCCCCCCCC(=O)OC[C@@H](O)CC(Br)P(=O)(O)O` (stereo partly drawn) [BrP-LPA, 1-Bromo-3(S)-hydroxy-4-(palmitoyloxy)butyl-phosphonate]: in the data set on WT mice (C57/BL6) (10 mg/Kg i.p. biweekly, 14 days after BLM, vs vehicle), the “fibrosis development (histopathology, H/E lung sections)” value was “development of focal areas of fibrosis with a patchy distribution in lung parenchyma”. For the same molecule, the soluble collagen accumulation result in the data set on WT mice (C57/BL6) (10 mg/Kg i.p., 14 days after BLM, vs Veh-treated mice) is listed as “significant reduction of collagen accumulation”. In addition, the “BAL total cell counts” value in the data set with WT mice (C57/BL6) (14 days post BLM administration, Brp- vs Veh-treated) is “did not differ”. Moreover, the “total protein content in BAL fluids” value with WT mice (C57/BL6) (vehicle- vs BrP-treated mice after BLM) is “did not differ”. Also, the “ATX enzymatic activity in BAL fluids” value at ATX [1] was “failed to detect lower levels of enzymatic activity”. The “levels of ATX in plasma and in BAL fluids” value in the data set on ATX [2] is “non statistical increase”. Also, in the data set with EAE mice, the “disease development (clinical score)” value is “attenuated disease development”. Also, the “ATX activity in plasma” value on ATX [3] was “reduced ATX activity”. Moreover, the “BAL fluid total cell counts (recruitment of neutrophils in the lungs)” value in the data set on WT mice (BrP-LPA 100 μg/mouse intratracheally prior to aerosolized LPS (10 mg)) is reported as 1.9×10^6±0.16. In addition, the BAL protein content entry in the data set on WT mice (LPS-exposed mice, vs vehicle-treated mice) was “significantly elevated”. Further, the “LPS-induced lung inflammation and alveolar edema (histopathology, BALF total cell counts)” value in the data set on WT mice (intratracheal prior to LPS exposure, 24 hr) is recorded as “significant increases”. For the same molecule, the “total protein concentration in BAL fluids” value with WT mice (saline treated mice) was “increased total protein concentration”. For the same molecule, the “disease development (clinical and histopathological analysis)” value with CIA in DBA/1 mice is listed as “attenuated disease development”.

(Values after patent US20130202614A1, “AUTOTAXIN PATHWAY MODULATION AND USES THEREOF” (B.S.R.C. "ALEXANDER FLEMING", priority 2010, published 2013).)
